Holding throughout (type): functional, cell-based
In one assay the test system is SMMC-7721. As to the kind of experiment: Antiproliferative activity against human SMMC7721 cells after 72 hrs by MTT assay. The following applies: SMMC-7721, 72 h.
The subject of the next assay is MCF7. Nature of the assay: Antiproliferative activity against human MCF7 cells after 72 hrs by MTT assay. The following applies: MCF7, 72 h.
Another assay concerns ECa-109 cell line. Nature of the assay: Antiproliferative activity against human EC109 cells after 72 hrs by MTT assay. The following applies: ECa-109, 72 h.
The next assay has as its system PC-3. As to the kind of experiment: Antiproliferative activity against human PC3 cells after 72 hrs by MTT assay. The note with it: PC-3, 72 h.
A further assay deals with MGC-803. As to the kind of experiment: Antiproliferative activity against human MGC803 cells after 72 hrs by MTT assay. The following applies: MGC-803, 72 h.
The next assay concerns EC9706. Nature of the assay: Antiproliferative activity against human EC9706 cells after 72 hrs by MTT assay. The following applies: EC9706, 72 h.

Each structure is given as a SMILES string.

For 21 molecules, IC50 results are on record in ChEMBL document CHEMBL4196033, “Potent hydrazone derivatives targeting esophageal cancer cells” (Eur J Med Chem, 2018).

On to `O=c1[nH]cc(F)c(=O)[nH]1` [FLUOROURACIL], for which the IC50 is 13.7 µM in the assay on SMMC-7721; 18.8 µM in the assay on MCF7; 6.02 µM in the assay on ECa-109 cell line; 6.27 µM in the assay with PC-3; 9.24 µM in the assay on MGC-803; 5.13 µM in the assay with EC9706.
On to `O=C(N/N=C/c1ccccc1O)c1cccc(S(=O)(=O)N2CCOCC2)c1`, for which the half-inhibitory concentration (IC50) in the assay on SMMC-7721 is 12.1 µM; with MCF7, 29.1 µM; in the assay with ECa-109 cell line it was 14.4 µM; with PC-3, 13.8 µM; in the assay on MGC-803, 25.3 µM; in the assay on EC9706, 19.6 µM.
Take `C/C(=N\NC(=O)c1cccc(S(=O)(=O)N2CCOCC2)c1)c1ccccc1`: the IC50 in the assay on SMMC-7721, in the assay with MCF7, in the assay on ECa-109 cell line, in the assay on PC-3, with MGC-803 and in the assay with EC9706 was more than 100 µM in each case.
Regarding `C/C(=N\NC(=O)c1cccc(S(=O)(=O)N2CCOCC2)c1)c1ccc(F)cc1`, the IC50 was more than 100 µM with SMMC-7721; more than 100 µM in the assay on MCF7; more than 100 µM in the assay with ECa-109 cell line; 81.3 µM in the assay with PC-3; more than 100 µM in the assay with MGC-803; more than 100 µM with EC9706.
For the molecule `C/C(=N\NC(=O)c1cccc(S(=O)(=O)N2CCOCC2)c1)c1ccccc1O`, the IC50 with SMMC-7721 turned out to be 1.37 µM; in the assay on MCF7, 5.4 µM; with ECa-109 cell line, 5.45 µM; with PC-3, 2.81 µM; in the assay on MGC-803, 1.22 µM; in the assay on EC9706, 1.22 µM.
Consider `C/C(=N\NC(=O)c1cccc(S(=O)(=O)N2CCOCC2)c1)c1cc(F)ccc1O`, for which the IC50 was determined as 1.15 µM with SMMC-7721; 6.65 µM with MCF7; 3.27 µM with ECa-109 cell line; 4.41 µM in the assay on PC-3; 2.26 µM in the assay with MGC-803; 2.21 µM in the assay on EC9706.
In the case of `C/C(=N\NC(=O)c1cccc(S(=O)(=O)N2CCOCC2)c1)c1cccc(N)c1O`, the IC50 in the assay with SMMC-7721 stood at 2.33 µM; with MCF7 it was 1.01 µM; in the assay on ECa-109 cell line, 5.06 µM; in the assay on PC-3 it was 2.33 µM; with MGC-803, 0.53 µM; in the assay on EC9706, 3.52 µM.
Take `CCN(CC)c1ccc(/C=N/NC(=O)c2cccc(S(=O)(=O)N3CCOCC3)c2)c(O)c1`: the IC50 in the assay on SMMC-7721 amounted to 27.1 µM; with MCF7, 3.52 µM; with ECa-109 cell line it was 0.73 µM; with PC-3, 14 µM; in the assay on MGC-803 it was 4.04 µM; with EC9706 it was 0.92 µM.
`C/C(=N\NC(=O)c1cccc(S(=O)(=O)N2CCOCC2)c1)c1cccc(O)c1`: the half-inhibitory concentration (IC50) in the assay on SMMC-7721, in the assay on MCF7, in the assay on ECa-109 cell line, with PC-3, in the assay with MGC-803 and with EC9706 was more than 100 µM in each case.
In the case of `O=C(N/N=C/c1cc(Cl)ccc1O)c1cccc(S(=O)(=O)N2CCOCC2)c1`, the IC50 in the assay on SMMC-7721 came out at 6.82 µM; in the assay on MCF7 it was 16.4 µM; in the assay on ECa-109 cell line it was 2.84 µM; in the assay with PC-3 it was 10.5 µM; in the assay with MGC-803, 11 µM; in the assay with EC9706 it was 2.15 µM.
In the case of `C/C(=N\NC(=O)c1cccc(S(=O)(=O)N2CCOCC2)c1)c1ccc(O)cc1`, the IC50 in the assay on SMMC-7721 is 88.5 µM; with MCF7, more than 100 µM; in the assay on ECa-109 cell line, 88.3 µM; in the assay with PC-3, 36.2 µM; with MGC-803, 71.4 µM; in the assay with EC9706, 71.4 µM.
As to `NNC(=O)c1cccc(S(=O)(=O)N2CCOCC2)c1`, the IC50 in the assay with ECa-109 cell line and in the assay with EC9706 was more than 100 µM in each case.
Take `C/C(=N\NC(=O)c1cccc(S(=O)(=O)N2CCOCC2)c1)c1cc(O)ccc1O`: the IC50 was more than 100 µM in the assay with SMMC-7721; more than 100 µM in the assay on MCF7; 21.4 µM in the assay on ECa-109 cell line; more than 100 µM with PC-3; 9.09 µM with MGC-803; 3.51 µM in the assay on EC9706.
As to `O=C(N/N=C/c1ccco1)c1cccc(S(=O)(=O)N2CCOCC2)c1`, the IC50 in the assay with SMMC-7721, in the assay on MCF7, with ECa-109 cell line, in the assay on PC-3, in the assay on MGC-803 and in the assay on EC9706 was more than 100 µM throughout.
With `C/C(=N\NC(=O)c1cccc(S(=O)(=O)N2CCOCC2)c1)c1cc(Br)ccc1O`, the IC50 amounted to 2.41 µM in the assay on SMMC-7721; 7.83 µM in the assay with MCF7; 5.28 µM with ECa-109 cell line; 6.89 µM in the assay with PC-3; 18 µM in the assay on MGC-803; 24.7 µM in the assay on EC9706.
For `O=C(N/N=C/c1cc(Br)cc(Br)c1O)c1cccc(S(=O)(=O)N2CCOCC2)c1`, the IC50 in the assay on SMMC-7721 worked out at 7.31 µM; with MCF7, 16 µM; in the assay on ECa-109 cell line, 10.3 µM; in the assay on PC-3 it was 9.7 µM; in the assay with MGC-803 it was 17.8 µM; in the assay with EC9706, 2.44 µM.
Take `O=C(N/N=C/c1cc(Br)ccc1O)c1cccc(S(=O)(=O)N2CCOCC2)c1`: the IC50 amounted to 9.94 µM in the assay with SMMC-7721; 26.6 µM with MCF7; 11.7 µM in the assay on ECa-109 cell line; 7.23 µM with PC-3; 14.8 µM in the assay on MGC-803; 29.7 µM in the assay on EC9706.
`O=C(N/N=C/c1ccccn1)c1cccc(S(=O)(=O)N2CCOCC2)c1`: the IC50 was more than 100 µM in the assay on SMMC-7721; more than 100 µM in the assay with MCF7; 55.7 µM in the assay on ECa-109 cell line; 88.1 µM in the assay on PC-3; 81.7 µM in the assay with MGC-803; 44.3 µM in the assay on EC9706.
With `CCOc1cccc(/C=N/NC(=O)c2cccc(S(=O)(=O)N3CCOCC3)c2)c1O`, the IC50 with SMMC-7721 was 6.99 µM; with MCF7, 19.3 µM; with ECa-109 cell line it was 16.5 µM; in the assay on PC-3 it was 15.3 µM; in the assay on MGC-803, 18 µM; with EC9706 it was 15.4 µM.
With `O=C(N/N=C/c1cccs1)c1cccc(S(=O)(=O)N2CCOCC2)c1`, the IC50 in the assay on SMMC-7721, with MCF7, in the assay with ECa-109 cell line, in the assay on PC-3, in the assay on MGC-803 and in the assay on EC9706 was more than 100 µM throughout.
For `C/C(=N\NC(=O)c1cccc(S(=O)(=O)N2CCOCC2)c1)c1cccc(N)c1`, the IC50 in the assay on SMMC-7721, with MCF7, in the assay with ECa-109 cell line, with PC-3, in the assay with MGC-803 and in the assay with EC9706 was more than 100 µM throughout.
